From ChEMBL document CHEMBL1139588, “Ketoheterocycle-based inhibitors of cathepsin K: a novel entry into the synthesis of peptidic ketoheterocycles” (Bioorg Med Chem Lett, 2005) come the findings set out here.

Test [1] deals with T1, Cathepsin K (Homo sapiens) (UniProt P43235).
T1 sequence (whole entry): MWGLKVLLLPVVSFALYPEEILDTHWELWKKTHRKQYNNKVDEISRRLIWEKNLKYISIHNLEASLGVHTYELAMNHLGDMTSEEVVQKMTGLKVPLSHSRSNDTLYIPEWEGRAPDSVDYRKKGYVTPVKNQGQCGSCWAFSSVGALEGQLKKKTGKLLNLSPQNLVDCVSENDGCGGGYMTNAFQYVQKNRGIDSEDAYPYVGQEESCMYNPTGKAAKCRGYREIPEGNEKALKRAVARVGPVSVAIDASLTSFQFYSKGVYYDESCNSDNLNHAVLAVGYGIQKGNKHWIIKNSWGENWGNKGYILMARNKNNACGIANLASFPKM
Nature of the test: Percentage inhibition of 10 uM Cbz-Phe-Arg-AMC binding to human cathepsin K at 12.6 uM by fluorescence assay.

The target in a further test is T2, Cathepsin K (Homo sapiens, UniProt P43235).
T2 sequence (P43235 whole entry): T1 sequence (whole entry)
Nature of the test: Inhibition of 10 uM Cbz-Phe-Arg-AMC binding to human cathepsin K by fluorescence assay.

The species named for test [2] is Homo sapiens. In words: Ratio of inhibitory potency against cathepsins K and S using 10 uM Cbz-Phe-Arg-AM in fluorescence assay.
For test [3], the species on record is Homo sapiens. In words: Ratio of inhibitory potency against cathepsins K and V using 2 uM Cbz-Phe-Arg-AMC in fluorescence assay.
For test [4], the species on record is Homo sapiens. In words: Ratio of inhibitory potency against cathepsins K and B using 10 uM Cbz-Phe-Arg-AMC in fluorescence assay.
Test [5] deals with Cathepsin (L and K) (Homo sapiens) (UniProt P43235+P07711). In words: Ratio of inhibitory potency against cathepsins L and K using 5 uM Cbz-Phe-Arg-AMC in fluorescence assay. In kind it is protein assay.

SMILES strings stand for the structures.

Chain of Cathepsin (L and K) (Homo sapiens) (P07711 whole entry, looked up, one chain of several): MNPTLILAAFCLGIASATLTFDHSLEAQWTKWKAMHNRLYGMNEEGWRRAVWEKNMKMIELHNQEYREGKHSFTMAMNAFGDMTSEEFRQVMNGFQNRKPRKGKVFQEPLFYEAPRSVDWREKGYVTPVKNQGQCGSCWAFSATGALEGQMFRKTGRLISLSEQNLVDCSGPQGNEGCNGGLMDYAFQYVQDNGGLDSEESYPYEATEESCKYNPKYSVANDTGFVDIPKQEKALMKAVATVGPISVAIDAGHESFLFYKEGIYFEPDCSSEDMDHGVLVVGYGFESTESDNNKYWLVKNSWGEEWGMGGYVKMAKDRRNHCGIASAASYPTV

For orientation: inhibition means the percentage by which the read-out fell short of the control. Read a high inhibition as strong suppression. Compound `CCCC[C@H](NC(=O)OC(C(C)C)C(C)C)C(=O)c1ccccc1` had an inhibition in test [1] of 2%.
A word on the IC50: it is the concentration that inhibits the measured activity by half. In turn, `CCCC[C@H](NC(=O)O[C@@H](C)CC1CCCCC1)C(=O)c1nc(C(F)(F)F)cs1` showed an IC50 at Cathepsin K of 13 µM.
`CCCC[C@H](NC(=O)OC(CC)Cc1ccccc1)C(=O)c1nc(C(=O)OCC)cs1` (stereo partly specified) displayed an IC50 on Cathepsin K of more than 13 µM.
Same read-out and setting: the same measure for `CCCC[C@H](NC(=O)O[C@@H](C)CC1CCCCC1)C(=O)c1nc(-c2ccccc2)cs1`: 7.1 µM.
As for `CCOC(=O)c1csc(C(=O)CNC(=O)OC(CC)Cc2ccccc2)n1` (stereo unspecified), the inhibition in test [1] was 0%.
`CCCC[C@H](NC(=O)O[C@@H](C)CC1CCCCC1)C(=O)c1nc(C(=O)OCC)cs1`: the Ratio (in the test listed under Homo sapiens [2]; in the test listed under Homo sapiens [3]; in the test listed under Homo sapiens [4]; in test [5]) was more than 40 each time. At Cathepsin K, this compound returned an IC50 of 0.23 µM.
For the compound `CCCOc1ccccc1C(=O)NCC(=O)c1nc(C(=O)OCC)cs1`, the IC50 on Cathepsin K is more than 13 µM.
In turn, `CCCC[C@H](NC(=O)O[C@@H](C)CC1CCCCC1)C(=O)c1nnc(-c2ccccc2)o1` showed an IC50 on Cathepsin K of 4 µM.
The compound `CCCC[C@H](NC(=O)OC(Cc1ccccc1)CC(C)C)C(=O)c1nc(C(=O)OCC)cs1` (stereo partly specified) returned an inhibition in test [1] of 31%.
Still for that read-out and setting: the same measure for `CCOC(=O)c1csc(C(=O)CNC(=O)[C@H](CC(C)C)NC(=O)OCc2ccccc2)n1`: 20%.
With `CCCC[C@H](NC(=O)OC(C(C)C)C(C)C)C(=O)c1cccs1`, the IC50 on Cathepsin K was 1.9 µM.
On the same count and under the same terms, with `CCCC[C@H](NC(=O)[C@H](CC(C)C)NC(=O)OCc1ccccc1)C(=O)c1nc(C(=O)OCC)cs1` the figure was 13 µM; with `CCCC[C@H](NC(=O)O[C@@H](C)CC1CCCCC1)C(=O)c1noc(C)n1`, 8.1 µM.
Take `CCCC[C@H](NC(=O)OC(Cc1ccccc1)C(C)C)C(=O)c1nc(C(=O)OCC)cs1` (stereo partly specified): the inhibition in test [1] was 28%.
In turn, `CCCC[C@H](NC(=O)O[C@@H](C)CC1CCCCC1)C(=O)c1nccs1` registered a half-maximal inhibitory concentration (IC50) on Cathepsin K of 3.1 µM.
`CCOC(=O)c1csc(C(=O)CNC(=O)O[C@@H](C)CC2CCCCC2)n1` displayed an inhibition in test [1] of 0%.
On the same count and under the same terms, the same measure for `CCCC[C@H](NC(=O)O[C@@H](C)CC1CCCCC1)C(=O)c1nc(C)c(C(=O)OCC)s1`: 10%.
